Source: US20220242853A1, “MODIFIED CYANINE DYES AND CONJUGATES THEREOF” (BRACCO IMAGING S.P.A., priority 2019, published 2022)

Key:
[1] = Biodistribution and elimination by optical imaging after intravenous administration; assay type: in vivo, Balb/c nu/nu mice; details: male, Balb/c nu/nu, mouse, in vivo, iv
Method: Biodistribution and elimination of the fluorescent agents of the invention was evaluated by optical imaging after intravenous administration in male Balb/c nu/nu mice, 6-10 weeks of age (Charles River Laboratories). Briefly, mice housed 4 per cage and fed with VRF1 (P) sterile diet (Special Diets Services Ltd) up to the end of the acclimation period (5 days). Then, AIN-76a rodent diet irradiated (Research Diets), a special diet that reduces auto-fluorescence, was used up to the end of the experiments. Imaging experiments were performed using the preclinical optical system IVIS Spectrum (Perkin Elmer).
In vivo imaging was performed under gas anesthesia (Sevofluorane 6-8% in oxygen). Animals were intravenously injected with the compounds and imaged longitudinally at 30 min, 1 h, 2 h, 3 h, 4 h, 6 h, and 24 h post-administration. Thus, animals were euthanized by anesthesia overdose, and the main tissues and organs of interest were excised for ex vivo optical imaging. Regions of interest (ROIs) were drawn on the tissues of interest for each fluorescence image at every time point to evaluate signal intensity (expressed as Average adiant Efficiency). The ratio between the fluorescence signal in the muscle (background tissue) and excretory organs (kidney, liver) was then calculated to assess the contrast. The tissue half-life was calculated by fitting the fluorescence signal decay in the muscle with a bi-exponential decay equation model using GraphPad Prism Software (version 5 for Windows).

[2] = target: T1, human serum albumin (HSA) (Homo sapiens, UniProt P02768); assay: Binding affinity to human serum albumin (absorbance peak shift or ultrafiltration method); details: phosphate buffer, 25° C., one of the two methods; read-out: HSA affinity (KA) (converted)
T1 construct: purchased Sigma Aldrich A9511
T1 sequence (P02768 25-609): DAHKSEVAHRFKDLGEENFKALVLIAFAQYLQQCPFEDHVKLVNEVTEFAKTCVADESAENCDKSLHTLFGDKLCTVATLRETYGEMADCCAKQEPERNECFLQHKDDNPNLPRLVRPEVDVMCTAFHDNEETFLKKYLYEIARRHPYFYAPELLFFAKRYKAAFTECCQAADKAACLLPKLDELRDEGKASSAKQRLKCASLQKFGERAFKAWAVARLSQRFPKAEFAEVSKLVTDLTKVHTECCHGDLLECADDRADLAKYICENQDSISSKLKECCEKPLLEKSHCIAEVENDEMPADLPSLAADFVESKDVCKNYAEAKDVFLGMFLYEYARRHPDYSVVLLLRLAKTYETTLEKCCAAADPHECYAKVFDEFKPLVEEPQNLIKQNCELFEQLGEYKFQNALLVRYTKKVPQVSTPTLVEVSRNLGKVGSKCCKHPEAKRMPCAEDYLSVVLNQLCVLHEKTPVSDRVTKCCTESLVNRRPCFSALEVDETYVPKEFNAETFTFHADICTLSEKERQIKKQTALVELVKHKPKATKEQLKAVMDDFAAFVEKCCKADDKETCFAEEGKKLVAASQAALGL
Method: Binding affinity to human serum albumin (HSA; Sigma Aldrich, A9511) was measured using two methods, according to the level of binding affinity of the compounds.
The first method, optimal for compounds which strongly interact with HSA, is based on the analysis of the absorbance spectrum peak shift after the incubation of the dye in solutions containing HSA. Briefly, the samples were incubated at a fixed concentration (1 μM) with HSA dilutions (1×10^−6-4×10^−4M), in phosphate buffer for 5 min in the spectrophotometer at 25° C. before measurements. The measure was performed at the maximum absorbance wavelength of the shifted peak.
The second method, optimal for compound with low affinity for HSA, is based on measuring the variation of the absorbance of solutions containing the dye and various concentrations of HSA after ultrafiltration. Briefly, each compound was incubated at a fixed concentration (2 μM) with HSA dilutions (1×10^−6-4×10^−4 M), in phosphate buffer. The samples were centrifuged (10,000 g for 30 min at 25° C.) in a Microcon device (10 kDa MWCO, Amicon Ultra-0.5 Centrifugal Filter Unit with Ultracel-10 membrane, Millipore) and the absorbance measurements of the filtrates were obtained with the spectrophotometer at the maximum absorbance wavelength of the fluorophore.
For both methods, the affinity constant (KA, M^−1) was calculated by fitting the raw data with the following formula:
wherein ΔA/b=Absorbance measured (b=1 cm) KRL=KA calculated by regression analysis (curve fitting) Δε·Rt calculated by regression analysis (curve fitting) [L]=Albumin concentration
In the first method, ΔA/b corresponds to the absorbance measured for each sample, whereas in the second method ΔA/b is obtained subtracting the absorbance of the control sample (dye without HSA) to the absorbance of each other sample.
However, the measurement of the affinity constant is more precise when the suitable method is used as a function of the affinity level of the compound.

U87MG cells = assay: Tumor uptake by optical imaging, subcutaneous human glioblastoma model; assay type: in vivo, Balb/c nu/nu mice; details: iv 1 nmol, 1-2 hours after administration, tumor vs muscle
Method: Tumor uptake experiments were carried out in an animal model of human glioblastoma (subcutanous) overexpressing the integrin receptors, particularly αvβ3. Briefly, human glioblastoma U87MG cells (ATCC, HTB-14) were cultured in Eagle's Minimum Essential Medium (EMEM) supplemented with 10% Fetal Bovine Serum (FBS), 2 mM glutamine, 100 IU/mL penicillin, 100 μg/mL streptomycin. Male Balb/c nu/nu mice, 4-6 weeks of age (Charles River Laboratories), underwent subcutaneous implantation (right flank) of about 10 million cells suspended in 0.1 mL of EMEM. Mice were housed 4 per cage with food and water ad libitum. […] Then, AIN-76a rodent diet irradiated (Research Diets), a special diet that reduces auto-fluorescence, was used up to the end of the experiments. Tumor growth was monitored by longitudinal assessments using a caliper up to the target size of 300-600 mm^3 (3-4 weeks after cell implantation). […]
In vivo imaging was performed under gas anesthesia (Sevofluorane 6-8% in oxygen). […] Regions of interest (ROIs) were drawn on the tissues of interest for each fluorescence image at every time point to evaluate signal intensity (expressed as Average Radiant Efficiency). The ratio between the fluorescence signal in the tumor and in the muscle (background tissue) was then calculated to assess the contrast.

CC(CC[N+]1=C(/C=C/C=C/C=C/C=C2/N(CCCCCC(=O)NCCCC[C@@H]3NC(=O)C(Cc4ccccc4)NC(=O)[C@H](CC(=O)O)NC(=O)CNC(=O)[C@H](CCCNC(=N)N)NC3=O)c3ccc(C(=O)NCC(O)C(O)C(O)C(O)CO)cc3C2(C)C)C(C)(C)c2cc(C(=O)NCC(O)C(O)C(O)C(O)CO)ccc21)S(=O)(=O)[O-] (stereo partly drawn) [Compound 1]
half-life [1]: < 1 h | Kd [2]: 159 µM | Tumor-to-background ratio (TBR) (U87MG cells): 2-2.5
